Reference: patent publication US20220204437A1, “New Kaurane analogues, their preparation and therapeutically uses” (KEY PHARMA BIOMEDICAL INC., priority 2019, published 2022)

Assays:
[1] = DOX alone or DOX co-treated with the compound
[2] = system: drug induced diabetes animal model; assay: Drug induced diabetes animal model with cardiomyopathy; type: in vivo; settings: cardiomyopathy developed after 4 weeks; treatment for 2 weeks
Text: In other embodiment, this invention disclosed that in a drug induced diabetes animal model, cardiomyopathy was developed after 4 weeks. However, the cardiac inflammatory changes were diminished after treatment of compound 1 and 2 for 2 weeks.

[3] = system: cardiac ischemia animal model by coronary ligation; assay: Cardiac ischemia animal model by coronary ligation; type: in vivo; settings: for area of infraction / cardiac contractility / number of micro-blood vessels: coronary ligation, in comparison of control; for function of failing heart due to acute coronary ligation / occurrence of arrhythmia induced by acute ischemia: in vivo
Text: This invention disclosed that compound 1 and 2 can increased the function of failing heart due to acute coronary ligation.

[4] = system: Doxorubicin-induced cardiotoxicity; assay: Protection against Doxorubicin-induced cardiotoxicity / cardiac dysfunctions in vivo; settings: among the synthesized new kaurane analogues
[5] = system: chronic cardiac hypertrophy and heart failure animal induced by TAC; assay: Chronic cardiac hypertrophy and heart failure animal induced by TAC (Thoracic aorta constriction); type: in vivo; settings: for interstitial collagen deposition (histo-pathology) / number of myofibroblasts (histo-pathology) / size of cardiomyocytes (histo-pathology): treated 4 weeks, in comparing to control; for cardiac contractility: treated for consecutive 4 weeks after the surgery, in comparing of control animals
Experimental: Furthermore, in an embodiment of this invention, a chronic cardiac hypertrophy and heart failure animal was induced by TAC (Thoracic aorta constriction) . The animal was treated with compound 1 and 2 for consecutive 4 weeks after the surgery.

[6] = system: cardiac toxicity animal induced by other drugs used for chemotherapy; assay: Cardiac toxicity animal induced by other chemotherapy drugs (anthracyclines: epirubicin, daunorubicin, aclarubicin); type: in vivo; settings: cardiac toxicity induced by anthracyclines including epirubicin
[7] = system: cerebral ischemia animal model; assay: Cerebral ischemia animal model; type: in vivo; settings: in comparison of control

Compound	LC50 of DOX [1]	cardiac inflammatory changes [2]	area of infraction [3]	cardiac contractility [3]	number of micro-blood vessels [3]	function of failing heart due to acute coronary ligation [3]	occurrence of arrhythmia induced by acute ischemia [3]	protective activity against Doxorubicin-induced cardiotoxicity [4]	interstitial collagen deposition (histo-pathology) [5]	number of myofibroblasts (histo-pathology) [5]	size of cardiomyocytes (histo-pathology) [5]	cardiac contractility [5]	effects in term of function and pathology [6]	area of infraction [7]	movement and behavers [7]
COc1cccc2c1C(=O)c1c(O)c3c(c(O)c1C2=O)C[C@@](O)(C(=O)CO)C[C@@H]3O[C@H]1C[C@H](N)[C@H](O)[C@H](C)O1 [DOX, Doxorubicin, reference compound]	51.56 µM														
C[C@]12CC[C@@H]3C(CC[C@H]4[C@@]3(C)CCC[C@@]4(C)C(=O)O)(C1)[C@H](C(=O)O)[C@H]2O [compound 1, (4R, 4aS, 7S, 8R, 9S, 11aS, 11lbS)-8-hydroxy-4,9, 11b-trimethyltetradecahydro-6a, 9-methanocyclohepta[a]naphthalene-4,7-dicarboxylic acid]	66.62 µM	diminished	reduced	significantly increased	increased	increased	reduced	maximum protective activity	reduced	reduced	significant reduction	significantly enhanced	Signiant beneficial effects	significantly reduced	improved
C[C@]12CC[C@@H]3C(CC[C@H]4[C@@]3(C)CCC[C@@]4(C)C(=O)O)(C1)[C@H](C=O)[C@H]2O [compound 2, (4R, 4aS, 7S, 8R, 9S, 11aS, 11bS)-7-formyl-8-hydroxy-4,9, llb-trimethyltetradecahydro-6a, 9-methanocyclohepta[a]naphthalene-4-carboxylic acid]	92.61 µM	diminished	reduced	significantly increased	increased	increased	reduced	maximum protective activity	reduced	reduced	significant reduction	significantly enhanced	Signiant beneficial effects	significantly reduced	improved
C[C@]12CC[C@@H]3C(CC[C@H]4[C@@]3(C)CCC[C@@]4(C)C(=O)O)(C1)[C@H](CO)C2=O [compound 3, (4R, 4aS, 7R, 9S, 11aS, 11bS)-7-(hydroxymethyl)-4,9, 11b-trimethyl-8-oxotetradecahydro-6a, 9-methanocyclohepta[a]naphthalene-4-carboxylic acid]	74.83 µM														
